Test systems include EKVX NSCLC; SF-268 CNS; HCT-116 colon; NCI-H23 lung; SN12C renal; 786-0 renal; OVCAR-4 ovarian; HOP-62 NSCLC; UO-31 renal; LOX IMVI melanoma.
Common to all, as to assay: NCI anticancer screen, dose series, 48 h

The structures appear in SMILES notation.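 All cell lines were grown in 96-well plates and treated with compound for 48 hours. At the GI50, growth is halved. TGI: concentration producing complete growth inhibition.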

As to `NC(N)=NS(=O)(=O)c1ccc(N=Nc2c(O)c(C(=O)O)cc3ccccc23)cc1`, the TGI in the assay with EKVX NSCLC, in the assay on SF-268 CNS, in the assay with HCT-116 colon, in the assay on NCI-H23 lung, with SN12C renal and in the assay on 786-0 renal was greater than 100 µM in each case. In addition, the TGI in the assay with OVCAR-4 ovarian, in the assay on HOP-62 NSCLC and in the assay with UO-31 renal was greater than 100 µM in each case.

As to `O=C1NC(=NCc2ccccc2)S/C1=C\c1ccc2ncccc2c1`, the GI50 in the assay with LOX IMVI melanoma was greater than 25 µM; in the assay on SF-268 CNS, greater than 25 µM; with HCT-116 colon it was greater than 20.7 µM; in the assay with NCI-H23 lung it was greater than 25 µM; in the assay on SN12C renal, greater than 25 µM; in the assay on 786-0 renal, greater than 25 µM. Further, the GI50 in the assay with OVCAR-4 ovarian, in the assay on HOP-62 NSCLC and in the assay on UO-31 renal was greater than 25 µM throughout. For the same compound, the TGI in the assay on LOX IMVI melanoma, in the assay with SF-268 CNS, in the assay with HCT-116 colon, in the assay with NCI-H23 lung, in the assay with SN12C renal and with 786-0 renal was greater than 25 µM throughout. The TGI in the assay with OVCAR-4 ovarian, in the assay with HOP-62 NSCLC and in the assay on UO-31 renal was greater than 25 µM in each case.

With `COc1ccc(Cn2c(Br)c3c(c2Br)-c2nc(N)sc2CC3)cc1`, the GI50 with LOX IMVI melanoma is 3.35 µM; in the assay with SF-268 CNS it was 6.15 µM; in the assay on HCT-116 colon it was 2.89 µM; in the assay on NCI-H23 lung it was 10.6 µM; in the assay on SN12C renal, 5.47 µM; with 786-0 renal it was 5.02 µM. Besides, the values for the GI50 in the assay on HOP-62 NSCLC and in the assay with UO-31 renal were 6.55 µM and 1.59 µM, respectively. Besides, the TGI with LOX IMVI melanoma worked out at 16.3 µM; in the assay on SF-268 CNS, 46.6 µM; in the assay with HCT-116 colon it was 11.2 µM; with NCI-H23 lung, 38.6 µM; in the assay on SN12C renal, 21 µM; in the assay on 786-0 renal it was 28.6 µM. The TGI is 20.5 µM in the assay on HOP-62 NSCLC and 3.97 µM in the assay on UO-31 renal.

Take `CC1(C)[C@@H](NOCCCN)CC[C@]2(C)[C@H]3C(=O)C=C4[C@@H]5C[C@](C)(C(=O)O)CC[C@]5(C)CC[C@@]4(C)[C@]3(C)CC[C@@H]12`: the GI50 in the assay on EKVX NSCLC was 14 µM; in the assay with SF-268 CNS, 8.92 µM; with HCT-116 colon, 2.95 µM; in the assay on NCI-H23 lung, 10.7 µM; in the assay with SN12C renal, 4.6 µM; in the assay with 786-0 renal, 6.23 µM. Besides, the GI50 in the assay on OVCAR-4 ovarian is 8.69 µM; in the assay with HOP-62 NSCLC it was 13.5 µM; in the assay with UO-31 renal, 7.44 µM. The TGI with EKVX NSCLC was 44.8 µM; in the assay with SF-268 CNS, 21.6 µM; with HCT-116 colon it was 11.5 µM; in the assay on NCI-H23 lung, 64.7 µM; with SN12C renal it was 19.5 µM; in the assay with 786-0 renal, 19.2 µM. The TGI in the assay with OVCAR-4 ovarian was determined as 34.8 µM; with HOP-62 NSCLC it was 48.4 µM; in the assay with UO-31 renal, 20.4 µM.

`CN(C)C(=S)/N=c1\ssc(=S)n1C1CCCCC1`: the TGI with EKVX NSCLC was greater than 100 µM; with SF-268 CNS, greater than 100 µM; in the assay on HCT-116 colon it was 32.3 µM; in the assay with NCI-H23 lung it was greater than 100 µM; with SN12C renal, greater than 100 µM; with 786-0 renal it was 31.6 µM. Further, the TGI with OVCAR-4 ovarian, in the assay with HOP-62 NSCLC and in the assay on UO-31 renal was greater than 100 µM throughout.

Turning to `Cc1ccc(NC2=C3CCCCC3OC2=O)cc1` (centres undefined), the GI50 in the assay on SF-268 CNS is greater than 100 µM; with HCT-116 colon, 66.1 µM; with NCI-H23 lung it was 60.5 µM; with SN12C renal it was 93 µM; in the assay with 786-0 renal, greater than 100 µM; in the assay with OVCAR-4 ovarian, 43.2 µM. The GI50 with HOP-62 NSCLC was greater than 100 µM; with UO-31 renal it was 27.6 µM. The TGI with SF-268 CNS, with HCT-116 colon, in the assay with NCI-H23 lung, with SN12C renal, in the assay with 786-0 renal and with OVCAR-4 ovarian was greater than 100 µM in each case. For the same compound, the TGI in the assay on HOP-62 NSCLC and with UO-31 renal was greater than 100 µM in each case.

On to `CC(=O)N[C@@H](Cc1ccc(OP(=O)(O)O)cc1)C(=O)N[C@H]1CCC(=O)N2CCC[C@@H](C(=O)Nc3cccc4ccccc34)N2C1=O`, for which the GI50 in the assay with LOX IMVI melanoma, with SF-268 CNS, with HCT-116 colon, in the assay with NCI-H23 lung, in the assay with SN12C renal and in the assay with 786-0 renal was greater than 25 µM each time. The GI50 in the assay on OVCAR-4 ovarian is greater than 25 µM; in the assay on HOP-62 NSCLC it was greater than 25 µM; in the assay with UO-31 renal it was greater than 21.4 µM. Further, the TGI in the assay with LOX IMVI melanoma, in the assay on SF-268 CNS, in the assay with HCT-116 colon, with NCI-H23 lung, with SN12C renal and in the assay with 786-0 renal was greater than 25 µM throughout. Also, the TGI in the assay on OVCAR-4 ovarian, with HOP-62 NSCLC and in the assay with UO-31 renal was greater than 25 µM throughout.

For the compound `NC(=S)N/N=C\c1nccc2c(C(F)(F)F)cccc12`, the GI50 in the assay on LOX IMVI melanoma is 0.277 µM; in the assay with SF-268 CNS, 0.27 µM; with HCT-116 colon it was 0.298 µM; with NCI-H23 lung it was 0.446 µM; with SN12C renal, 0.31 µM; in the assay on 786-0 renal it was 0.3 µM. Besides, the GI50 is 0.162 µM in the assay on OVCAR-4 ovarian, 0.207 µM with HOP-62 NSCLC and 0.245 µM in the assay on UO-31 renal. In addition, the TGI in the assay on LOX IMVI melanoma is 10.8 µM; with SF-268 CNS it was 21.6 µM; in the assay with HCT-116 colon it was 4.26 µM; in the assay with NCI-H23 lung, greater than 49 µM; in the assay on SN12C renal, 12.4 µM; with 786-0 renal, 0.957 µM. Besides, the results for the TGI with OVCAR-4 ovarian, in the assay with HOP-62 NSCLC and in the assay on UO-31 renal were 24.8 µM, 1.4 µM and 3.11 µM, respectively.

For `COc1cc(-c2nn(-c3cccc(NC(=O)c4ccccc4)c3)cc2-c2ccncc2)ccc1Cl`, the GI50 is 0.567 µM in the assay on LOX IMVI melanoma; 0.596 µM in the assay on SF-268 CNS; 0.421 µM with HCT-116 colon; 1.12 µM with NCI-H23 lung; 1.45 µM in the assay on SN12C renal; 1.1 µM in the assay on 786-0 renal. The GI50 in the assay on OVCAR-4 ovarian was 1.11 µM; with HOP-62 NSCLC, 2.49 µM; in the assay with UO-31 renal, 0.4 µM. The TGI was greater than 100 µM with LOX IMVI melanoma; greater than 54.8 µM in the assay with SF-268 CNS; greater than 100 µM in the assay with HCT-116 colon; greater than 100 µM in the assay on NCI-H23 lung; greater than 100 µM with SN12C renal; greater than 100 µM in the assay with 786-0 renal. Besides, the TGI with OVCAR-4 ovarian and in the assay with HOP-62 NSCLC was greater than 100 µM in each case.

Source of the values: PubChem BioAssay (NCI).
